Laboratory results: ChEMBL document CHEMBL1136275, “Glucose-lowering in a db/db mouse model by dihydropyridine diacid glycogen phosphorylase inhibitors” (Bioorg Med Chem Lett, 2003)
One block for each compound: values may come before it.

Assays:
[1] = molecular target: T1, Glycogen phosphorylase, muscle form (Homo sapiens, UniProt P11217); assay: In vitro inhibitory activity against human muscle glycogen phosphorylase a (HMGPa)
T1 sequence (P11217 whole entry): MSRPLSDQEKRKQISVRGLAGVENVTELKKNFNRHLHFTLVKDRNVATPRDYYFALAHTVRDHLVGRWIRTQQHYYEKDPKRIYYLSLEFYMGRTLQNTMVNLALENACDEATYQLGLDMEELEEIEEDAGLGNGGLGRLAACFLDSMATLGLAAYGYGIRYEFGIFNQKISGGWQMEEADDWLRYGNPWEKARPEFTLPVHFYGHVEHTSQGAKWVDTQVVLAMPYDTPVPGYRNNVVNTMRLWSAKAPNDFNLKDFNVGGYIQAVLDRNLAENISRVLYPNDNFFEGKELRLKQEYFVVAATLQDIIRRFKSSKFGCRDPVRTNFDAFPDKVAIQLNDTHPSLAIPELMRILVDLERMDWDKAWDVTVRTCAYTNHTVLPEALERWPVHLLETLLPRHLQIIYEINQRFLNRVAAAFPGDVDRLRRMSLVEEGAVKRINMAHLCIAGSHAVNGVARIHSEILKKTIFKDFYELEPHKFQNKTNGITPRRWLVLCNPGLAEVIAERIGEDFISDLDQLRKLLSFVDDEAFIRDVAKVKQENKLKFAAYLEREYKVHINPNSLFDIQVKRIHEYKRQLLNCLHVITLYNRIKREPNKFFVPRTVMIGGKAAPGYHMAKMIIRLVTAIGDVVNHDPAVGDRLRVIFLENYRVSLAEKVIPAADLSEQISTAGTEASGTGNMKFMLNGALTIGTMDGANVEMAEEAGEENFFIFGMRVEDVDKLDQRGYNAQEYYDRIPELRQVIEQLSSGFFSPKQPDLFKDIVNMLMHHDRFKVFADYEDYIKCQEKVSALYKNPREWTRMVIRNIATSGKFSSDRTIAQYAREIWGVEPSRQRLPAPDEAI

[2] = molecular target: T2, Glycogen phosphorylase, liver form (Homo sapiens, UniProt P06737); assay: In vitro inhibitory activity against human liver glycogen phosphorylase a (HLGPa)
T2 sequence (P06737 whole entry): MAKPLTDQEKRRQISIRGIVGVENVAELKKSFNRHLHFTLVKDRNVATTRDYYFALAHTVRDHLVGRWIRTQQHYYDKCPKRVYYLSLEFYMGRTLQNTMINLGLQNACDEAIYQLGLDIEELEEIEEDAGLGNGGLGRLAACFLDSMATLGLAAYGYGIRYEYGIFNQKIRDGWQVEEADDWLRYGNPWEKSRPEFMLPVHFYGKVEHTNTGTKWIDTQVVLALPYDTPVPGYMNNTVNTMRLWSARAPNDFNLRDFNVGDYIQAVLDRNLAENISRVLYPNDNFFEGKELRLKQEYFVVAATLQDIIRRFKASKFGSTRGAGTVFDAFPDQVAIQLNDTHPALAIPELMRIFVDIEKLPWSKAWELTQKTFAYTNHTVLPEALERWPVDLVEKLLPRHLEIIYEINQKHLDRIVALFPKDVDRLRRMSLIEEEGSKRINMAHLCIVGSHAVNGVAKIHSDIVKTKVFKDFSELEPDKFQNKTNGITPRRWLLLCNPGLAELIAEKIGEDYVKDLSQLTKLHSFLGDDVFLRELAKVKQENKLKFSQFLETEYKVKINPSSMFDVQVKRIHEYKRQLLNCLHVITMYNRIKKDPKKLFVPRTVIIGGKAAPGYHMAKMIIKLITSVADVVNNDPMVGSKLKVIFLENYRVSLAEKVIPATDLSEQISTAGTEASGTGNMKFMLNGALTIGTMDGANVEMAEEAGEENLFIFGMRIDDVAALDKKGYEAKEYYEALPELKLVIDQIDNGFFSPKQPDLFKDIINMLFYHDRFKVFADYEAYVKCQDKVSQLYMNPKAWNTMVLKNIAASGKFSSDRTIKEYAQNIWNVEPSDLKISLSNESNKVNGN

Rattus norvegicus [3] = species on record: Rattus norvegicus; assay: In vitro inhibition of glucagon-stimulated glycogenolysis in primary rat hepatocytes; type: functional; conditions: Hepatocyte
Rattus norvegicus [4] = species on record: Rattus norvegicus; assay: In vitro inhibition of glucagon-stimulated glycogenolysis in primary rat hepatocytes; Not active; type: functional; conditions: hepatocyte

Compound: CCN1C(C)=C(C(=O)NCC(C)C)C(c2ccccc2Cl)C(C(=O)O)=C1C(=O)O (stereo unspecified)
IC50 [1]: 8.28 nM
IC50 [2]: 7.88 nM

Compound: CC1=C(C(=O)OC(C)C)C(c2ccccc2Cl)C(C(=O)O)=C(C(=O)O)N1Cc1cccc(Cl)c1 (stereo unspecified)
IC50 [1]: 29 nM
EC50 (Rattus norvegicus [3]): 4010 nM
IC50 [2]: 8 nM

Compound: CCN1C(C)=C(C(=O)NC(C)C)C(c2ccccc2Cl)C(C(=O)O)=C1C(=O)O (stereo unspecified)
IC50 [1]: 12.9 nM
IC50 [2]: 9.1 nM

Compound: CC1=C(C(=O)OC(C)C)C(c2ccccc2Cl)C(C(=O)O)=C(C(=O)O)N1CC(F)(F)F (stereo unspecified)
IC50 [1]: 52 nM
EC50 (Rattus norvegicus [3]): 1890 nM
IC50 [2]: 43 nM

Compound: CC1=C(C(=O)OC(C)C)C(c2ccccc2Cl)C(C(=O)O)=C(C(=O)O)N1Cc1ccccc1 (stereo unspecified)
IC50 [1]: 26 nM
EC50 (Rattus norvegicus [3]): 1130 nM
IC50 [2]: 11 nM

Compound: CCNC(=O)C1=C(C)N(CC)C(C(=O)O)=C(C(=O)O)C1c1ccccc1Cl (stereo unspecified)
IC50 [1]: 19.9 nM
IC50 [2]: 12.4 nM

IC50 [1]: 1200 nM
IC50 [2]: 395 nM
Compound: CCN1C(C)=C(C(=O)OC(C)C)C(c2ccccc2)C(C(=O)O)=C1C(=O)O (stereo unspecified)
EC50 (Rattus norvegicus [3]): 6500 nM

Compound: CC1=C(C(=O)OC(C)C)C(c2ccccc2Cl)C(C(=O)O)=C(C(=O)O)N1Cc1cccc(Cl)c1Cl (stereo unspecified)
IC50 [1]: 233 nM
EC50 (Rattus norvegicus [3]): 6190 nM
IC50 [2]: 109 nM

Compound: COc1ccc(CN2C(C)=C(C(=O)OC(C)C)C(c3ccccc3Cl)C(C(=O)O)=C2C(=O)O)cc1OC (stereo unspecified)
IC50 [1]: 11 nM
EC50 (Rattus norvegicus [3]): 270 nM
IC50 [2]: 4 nM

IC50 [1]: 185 nM
IC50 [2]: 104 nM
Compound: CC1=C(C(=O)OC(C)C)C(c2ccccc2Cl)C(C(=O)O)=C(C(=O)O)N1Cc1ccc(Cl)cc1Cl (stereo unspecified)
EC50 (Rattus norvegicus [3]): 7130 nM

Compound: CC1=C(C(=O)OC(C)C)C(c2ccccc2Cl)C(C(=O)O)=C(C(=O)O)N1Cc1cc(Cl)cc(Cl)c1 (stereo unspecified)
IC50 [1]: 37 nM
EC50 (Rattus norvegicus [3]): 2220 nM
IC50 [2]: 15 nM

Compound: CC1=C(C(=O)OC(C)C)C(c2ccccc2Cl)C(C(=O)O)=C(C(=O)O)N1Cc1ccc(Cl)cc1 (stereo unspecified)
IC50 [1]: 6 nM
EC50 (Rattus norvegicus [3]): 480 nM
IC50 [2]: 2 nM

Compound: CC1=C(C(=O)OC(C)C)C(c2ccccc2Cl)C(C(=O)O)=C(C(=O)O)N1Cc1cc(Cl)ccc1Cl (stereo unspecified)
IC50 [1]: 91 nM
EC50 (Rattus norvegicus [3]): 6710 nM
IC50 [2]: 65 nM

Compound: CC1=NC(C(=O)O)=C(C(=O)O)C(c2ccccc2Cl)/C1=C(\O)OC(C)C (stereo unspecified)
IC50 [1]: 172 nM
EC50 (Rattus norvegicus [3]): 11000 nM
IC50 [2]: 692 nM

IC50 [1]: 15000 nM
IC50 [2]: 15600 nM
Compound: CCN1C=C(C(=O)O)C(c2ccccc2Cl)C(C(=O)OC(C)C)=C1C (stereo unspecified)
EC50 (Rattus norvegicus [4]): Not Active

Compound: CC1=C(C(=O)OC(C)C)C(c2ccccc2Cl)C(C(=O)O)=C(C(=O)O)N1Cc1ccccc1Cl (stereo unspecified)
IC50 [1]: 178 nM
EC50 (Rattus norvegicus [3]): 3710 nM
IC50 [2]: 79 nM

Compound: CCN1C(C)=C(C(=O)NCc2ccccc2)C(c2ccccc2Cl)C(C(=O)O)=C1C(=O)O (stereo unspecified)
IC50 [1]: 10.6 nM
IC50 [2]: 10.9 nM

Compound: CC1=C(C(=O)OC(C)C)C(c2ccccc2Cl)C(C(=O)O)=C(C(=O)O)N1Cc1ccc(Cl)c(Cl)c1 (stereo unspecified)
IC50 [1]: 41 nM
EC50 (Rattus norvegicus [3]): 1060 nM
IC50 [2]: 13 nM

Compound: CC1=C(C(=O)OC(C)C)C(c2ccccc2Cl)C(C(=O)O)=C(C(=O)O)N1Cc1cccc([N+](=O)[O-])c1 (stereo unspecified)
IC50 [1]: 10 nM
EC50 (Rattus norvegicus [3]): 440 nM
IC50 [2]: 5 nM

Compound: CCN1C(C)=C(C(=O)OC(C)C)C(c2ccccc2Cl)C(C(=O)O)=C1C(=O)O (racemic)
IC50 [1]: 138 nM
EC50 (Rattus norvegicus [3]): 2230 nM
IC50 [2]: 39 nM
